This is an account of results in patent US20260183396A1, “CXCR3 OVEREXPRESSION IN CAR-NK CELLS PRIMES MIGRATION/HOMING INTO THE TUMOR MICROENVIRONMENT” (DANA-FARBER CANCER INSTITUTE, INC., priority 2022, published 2026).

Structures are written as SMILES.

Data set [1] relates to STING. Put plainly: STING pathway activation / CXCL10 ELISA in MPM cell lines. The conditions noted are these: multiple MPM cell lines treated in vitro. It counts as cell-based, human. The procedure:
Cytokine analysis. CXCL10 ELISA (R&D Systems DIP100) and granzyme B ELISA (R&D systems DY008) were performed according to manufacturer's instructions on conditioned media collected from cell culture. Cytokine analysis of conditioned media after 3 days of explant (S1) culture (FIG. 9B) utilized the MSD U-PLEX Viral Combo 1 assay (Hu: K15343K-2), which was performed according to manufacturer's instructions.
Cell culture. MPM cell lines were cultured in RPMI-1640 (Thermo Fisher Scientific) supplemented with 10% FBS (Gemini Bio-products). H226, H28, MSTO-211H, H2452 and H2052 were purchased from ATCC. MS428 was provided by the Richards Lab. H2461 and H2591 were provided to Dr. Janne by the NIH (Pass et al., Ann. Thorac. Surg. 59:835-44 (1995)). JMN1B (Demetri et al., Blood 74:940-6 (1989)) and MS589 (Gordon et al., Am. J. Pathol. 166:1827-40 (2005)) were derived at BWH/DFCI and shared internally with permission. All experiments were performed before reaching 10 passages. Mycoplasma infection was regularly checked by PCR using the conditioned media derived from each cell line with primers as previously described (Kitajima et al., Cancer Discov. 9:34-45 (2019)).
Immunoblotting. Cells were lysed in RIPA buffer containing 1× protease inhibitors (Roche 11-836-145-001) and phosphatase inhibitors (50 mmol/L NaF and 100 mmol/L Na3VO4). […]
On the technique in general: An ELISA detects its analyte on a solid surface through an enzyme-linked reagent.

Data set [2] deals with NK cells. Put plainly: Immune cell toxicity assays, NK cells. It counts as cell-based. The conditions noted are these: 72 hours of high dose exposure; regardless of IL-2 or co-culture with TILs. The procedure:
Immune Cell Toxicity Assays. […] Following treatment, samples were stained with anti-CD45, anti-CD3, anti-CD4, anti-CD8, and anti-CD56 antibodies (Table 1), as well as Zombie Green live/dead (Biolegend 423111) and analyzed by flow cytometry as described above. Data were analyzed using FlowJo software version 10.5.3. As an orthogonal measure of viability, CellTiter-Glo was performed on primary T-cells and NK cells.
(§1) CellTiter-Glo luminescent cell viability assay. Cell viability was assessed using the CellTiter-Glo Luminescent Cell Viability assay (Promega, G7571) according to manufacturer's instructions. […] All conditions were tested in triplicate and plates were read on a Tecan Infinite Mplex Microplate Reader.

Data set [3] concerns H226 MPM cells. Put plainly: NK cell migration assay towards H226 spheroids. It counts as cell-based, human. The procedure: NK cell infiltration assay. Immune cell infiltration was assessed as previously described (Kitajima et al., Cancer Discov. 9:34-45 (2019); Mahadevan et al., Cancer Discov. 11:1952-1969 (2021)). Briefly, mesothelioma cancer cell spheroids (H2591, H2461, H226) were generated by seeding 5×10^5 cells in suspension in a ULA dish for 24 hours. […] Samples were then pelleted and resuspended in type I rat tail collagen (Corning) at a concentration of 2.5 mg/mL following the addition of 10×PBS with phenol red and pH adjustment using NaOH. pH 7.0-7.5 was confirmed using PANPEHA Whatman paper (Sigma-Aldrich). Cells and collagen were kept on ice to prevent polymerization. The spheroid-collagen suspension was then injected into the central gel region of the 3D DAX-1 microfluidic cell culture chip (AIM Biotech). Microfluidic devices were utilized as previously described (Aref et al., Lab Chip 18:3129-3143 (2018)), with a central region containing the cell-collagen mixture in a 3D microenvironment (3×10^4 cells H2591 and H2461, 2× 10^4 cells H226 in 10 μL), flanked by 2 media channels. After injection, collagen hydrogels containing cells were incubated for 40 minutes at 37° C. in humidity chambers, then hydrated with culture media, with labeled primary NK cells (ET ratio 2:1) added to one of the side channels. Primary NK cells were labeled with Cell Tracker Red (Thermo Fisher Scientific) following manufacturer's instructions. After 96 hours of incubation, viability staining of cancer cell spheroids and infiltrated immune cells was performed (20-minute incubation with 1 μg/mL solution of Propidium Iodide; Thermo Fisher Scientific). For the experiment with the CXCR3 neutralizing antibody (R&D MAB160), NK cells were pre-treated for 30 minutes prior to loading.
For quantification, images were captured on a Nikon Eclipse 80i fluorescence microscope equipped with Z-stack (Prior) and CoolSNAP CCD camera (Roper Scientific). Image capture and analysis was performed using NIS-Elements AR software package. Whole device images were achieved by stitching in multiple captures. Quantification of immune cell infiltration into the 3D tumor microenvironment was performed by measuring the total cell area of cell tracker dye in the entire gel region. For the experiment with the CXCR3 neutralizing antibody (R&D MAB160; FIG. 6B), staining was quantified in a square region in the center of the channel to focus on effects of CXCR3 ligands released by tumor cells. Percent dead cell quantification was performed as in PDOTS as described above.
Immune cell migration assays were performed as previously described (Kitajima et al., Cancer Discov. 9:34-45 (2019)). […]

In data set [4] the test system is NK cells. Put plainly: Autophagy staining (CYTO-ID). It counts as cell-based, human. The conditions noted are these: NK cells following ADU-S100 treatment. The method, then:
Autophagy Staining. Autophagy was assessed by vacuole staining to identify autophagolysosomes using the CYTO-ID Autophagy detection kit 2.0 (Enzo ENZ-51031-0050) according to manufacturer's instructions. Briefly, 5×10^5 isolated primary NK cells or TILs were incubated in T-cell growth media (TCGM) with 500 U/mL IL-2, which was refreshed every time the media was changed to ensure proper growth and selection. CLQ from the kit (Enzo 51005-CLQ) was used starting at the recommended initial dose of 10 μM compared with DMSO control. […] The media was collected, and flow cytometry was performed after staining following manufacturer's instructions with CYTO-ID Green Detection Reagent 2.

In data set [5] the test system is MPM cell lines. Put plainly: CellTiter-Glo viability in MPM cell lines. In kind it is cell-based, human. The conditions noted are these: cultured in vitro. The procedure: as §1
A general note: ATP-based viability assays read luminescence as a measure of living cells.

Regarding `Nc1ncnc2c1ncn2[C@@H]1O[C@@H]2COP(=O)([S-])O[C@@H]3[C@H](O)[C@@H](COP([O-])(=S)O[C@H]2[C@H]1O)O[C@H]3n1cnc2c(N)ncnc21.[Na+].[Na+]` (some centres unmarked) [ADU-S100], the “STING pathway activation, CXCL10 secretion” value in data set [1] is given as “potent pathway activation”. For the same compound, the “cytotoxicity in human NK cells” value in data set [2] is listed as “no significant cytotoxicity”. In addition, in data set [3], the “CAR-NK CXCR+ cell migration” value is “increased”, the “CAR-NK control cell migration” value is “did not affect”, the “migration of cNK cells” value is listed as “increased migration” and the “migration of cNK overexpressing CXCR3” value was “decreased migration”. Besides, the autophagic flux entry in data set [4] is “elevated”. Besides, the “cytotoxicity in MPM cell lines” value in data set [5] is on record as “did not cause cytotoxicity”.
